The values that follow come from patent US7119229B2 (priority 2001, dated 2006).

Like-named read-outs stand apart in the source and are kept apart here.

Common to all, as to type: cell-based
Assay [1] has as its system MES-SA/DX5 (adriamycin resistant cell strain). The experiment in a line: SRB cytotoxicity assay, MES-SA/DX5. The conditions noted are these: Homo sapiens, read-out: ED50 MES-SA/DX5. Here is the method:
(§1) Human tumor cells, including MCF-7 (human breast adenomatous tumor), MCF-7/DOX (adriamycin resistant cell strain), MRS-SA (human uterine sarcoma), MES-SA/DX5 (adriamycin resistant cell strain), A 549 (human non-small cell lung), SKOV-3 (human ovarian), SKMEL-2 (human melanoma), XF-498 (human CNS), HCT-15 (human colon) were incubated at 37° C. in the presence of 5% CO2 using a DMEM culture medium. The respective cells were seeded into each well of 96-well plates at a concentration of 2×10^3˜5×10^3 cells/well. […] Each cell line of the resultant plates was fixed with trichloroacetic acid (TCA), stained with 0.4% SRB solution and rinsed with 1% acetic acid. Thereafter, the dye was dissolved in 10 mM Tris base to measure the optical density (OD) at 520 nm.

Another assay relates to SKMEL-2 (human melanoma). The assay can be described thus: SRB cytotoxicity assay, SK-MEL-2. Particulars: read-out: ED50 SK-MEL-2. The protocol:
as §1
A general note: In SRB staining, fixed cells bind dye roughly in proportion to their protein.

Assay [2] deals with MES-SA (human uterine sarcoma). The assay can be described thus: SRB cytotoxicity assay, MES-SA. The conditions noted are these: read-out: ED50 MES-SA. Here is the method:
as §1

A further assay relates to HCT-15 (human colon). The experiment in a line: SRB cytotoxicity assay, HCT15. The conditions noted are these: read-out: ED50 HCT15. The protocol:
as §1

Another assay has as its system XF-498 (human CNS). The experiment in a line: SRB cytotoxicity assay, XF498. Particulars: 72 hours, read-out: ED50 XF498. The protocol:
as §1

In assay [3] the test system is BALB/c mouse spleen cells, T cells activated with concanvalin A (ConA). The assay can be described thus: Immunosuppressive effect test using BALB/c mouse spleen cells, ConA (T cells). Particulars: 2 μg/ml of ConA, 72 hours, MTS, FIGS. 2 and 3. Here is the method: (§2) This test was carried out to determine the immunosuppressive effect of an immunosuppressive candidate material by checking anti-proliferation of T cells and B cells. To identify the proliferation inhibitory extent, responding cells (BALB/c mouse spleen cells) were treated with an immunosuppressive candidate material, lipopolysaccharide (LPS) as a B cell activator and concanvalin A (ConA) as a T cell activator. It is known that the responding cells treated with LPS induce proliferation of B cells and those treated with ConA induce proliferation of T cells.
(§3) Responding cells (BALB/c mouse spleen cells) were seeded into each well of 96-well plates at a concentration of 2×10^5 cells/well. […] After culturing for 72 hours at a CO2 incubator, a 20 μl MTS solution was added to each well, followed by further culturing for 2 to 4 hours and measuring OD at 490 nm using ELISA.

Assay [4] concerns MCF-7 (human breast adenomatous tumor). The experiment in a line: SRB cytotoxicity assay, MCF7. The conditions noted are these: read-out: ED50 MCF7. The protocol: as §1
The subject of assay [5] is BALB/c mouse spleen cells, B cells activated with lipopolysaccharide (LPS). The experiment in a line: Immunosuppressive effect test using BALB/c mouse spleen cells, LPS (B cells). The conditions noted are these: 20 μg/ml lipopolysaccharide, 72 hours, MTS, FIGS. 2 and 3. Here is the method:
as §2, §3

The subject of assay [6] is BALB/c mouse spleen cell (responding) and DBA/2 mouse spleen cell (stimulating). The protocol: MLR tests were carried out to determine the immunosuppressive effect of an immunosuppressive candidate material. When a responding cell (BALB/c mouse spleen cell) and a stimulating cell (DBA/2 mouse spleen cell) were cultured separately, the cells grew little. On the contrary, when the cells were simultaneously cultured, the cells were proliferated due to induction of an antigen-antibody reaction. The proliferated cells were treated with the immunosuppressive candidate material for measurement of the proliferation inhibitory extent.
After culturing for 72 hours at a CO2 incubator, a 20 μl MTS solution was added to each well, followed by further culturing for 2 to 4 hours and measuring OD at […] by using ELISA.

Another assay relates to SKOV-3 (human ovarian). The assay can be described thus: SRB cytotoxicity assay, SK-OV-3. Particulars: 72 hours, read-out: ED50 SK-OV-3. Here is the method: as §1
The subject of assay [7] is MCF-7/DOX (adriamycin resistant cell strain). The experiment in a line: SRB cytotoxicity assay, MCF-7/DOX. Particulars: Homo sapiens, MCF7-DOX, read-out: ED50 MCF-7/DOX. The protocol: as §1
The subject of assay [8] is A 549 (human non-small cell lung). The experiment in a line: SRB cytotoxicity assay, A549. Particulars: read-out: ED50 A549. Here is the method: as §1

`COc1cc2c(c(OC)c1OC)-c1ccc(SC)c(=O)cc1[C@@H](NC(=O)c1cccc(CO[N+](=O)[O-])c1)CC2` [Compound 12]: the EC50 in assay [1] (MES-SA/Dx5, 72 h) is 115 nM; in the assay on SKMEL-2 (human melanoma) (SK-MEL-2, 72 h) it was 0.1 nM; in assay [2] (72 h) it was 0.01 nM; in the assay with HCT-15 (human colon) (HCT-15, 72 h), 0.1 nM; in the assay with XF-498 (human CNS) it was 0.2 nM; in assay [4] (MCF7, 72 h), 0.02 nM. The EC50 with SKOV-3 (human ovarian) was found to be 0.3 nM; in assay [7] (72 h) it was 28 nM; in [8] (A549, 72 h), 0.1 nM. Also, the “anti-proliferation of T cells” value in assay [3] is on record as “remarkable anti-proliferous effect”. Further, the “anti-proliferation of B cells” value in assay [5] was “remarkable anti-proliferous effect”. Moreover, in [6], the immunosuppressive effect entry is “good immunosuppressive effect”.

Take `CC(=O)O[C@H]1C(=O)[C@@]2(C)[C@H]([C@H](OC(=O)c3ccccc3)[C@]3(O)C[C@H](OC(=O)[C@H](O)[C@@H](NC(=O)c4ccccc4)c4ccccc4)C(C)=C1C3(C)C)[C@]1(OC(C)=O)CO[C@@H]1C[C@@H]2O` [Taxol, reference compound]: the EC50 stood at 1150 nM in assay [1] (MES-SA/Dx5, SRB, 72 hours); 0.1 nM in the assay with SKMEL-2 (human melanoma) (SK-MEL-2, SRB, 72 hours); 0.02 nM in [2] (SRB, 72 hours); 0.1 nM with HCT-15 (human colon) (HCT-15, SRB, 72 hours); 1.7 nM with XF-498 (human CNS); 0.04 nM in assay [4] (MCF7, SRB, 72 hours). The EC50 is 1.2 nM in the assay on SKOV-3 (human ovarian); 943 nM in assay [7] (SRB, 72 hours); 0.3 nM in assay [8] (A549, SRB, 72 hours).
